We go through seven compounds from patent US4689426A, “5-alkylidene-2-halo-4-substituted-2-cyclopentenone and process for production thereof” (Teijin Limited, priority 1983, dated 1987).

The subject of one assay is L1210 leukemia cells. The assay can be described thus: Inhibition of proliferation of L1210 leukemia cells. It is filed as cell-based. The note with it: Mus musculus, L1210, 96 h; 4 days at 37° C., trypan blue count of surviving cells. As to the method: Measurement of the action of inhibiting proliferation of L1210 leukemia cells
L1210 leukemia cells were added to an RPMI medium containing 10% FCS (fetal calf serum), and the concentration of the cells was adjusted to 1×10^5 cells/ml. Each of the test compounds shown in Table 1 was dissolved in 99.5% ethanol. Prior to use, the final concentration of the ethanol solution was adjusted to less than 0.1%, and it was added to the culture medium. The culture medium was then maintained at 37° C. in a stationary condition for 4 days. After the cultivation, the number of surviving cells was measured by dyeing with trypan blue. As a control, 0.1% ethanol was used. A dose-response curve was plotted from the ratios of proliferation against the control, and IC50 was determined.

The test system of the next assay is HSV type-1 (KOS). The assay is described as follows: Inhibition of herpes simplex virus replication in human embryo lung cells, plaque assay on Vero cells. It is filed as cell-based, herpes simplex virus type-1 (strain KOS). To be noted: 4 μg/ml, 24 hrs. pretreatment and 24 hrs. after infection; m.o.i. 1; control 1.4 × 10^8; mean of at least three wells. As to the method:
(§1) Measurement of inhibitory activities on herpes simplex virus replication
(§2) To evaluate the inhibitory effect of 2-chloro-4-(3,7-dimethyl-6-octenyl)-5-(6-carbomethoxyhexylidene)-2-cyclopentenone against herpes simplex virus [HSV] replication in vitro, human embryo lung cells [HELR66] were grown in 6-well Falcon plates in Eagle's minimal essential medium [MEM] supplemented with 5 percent fetal calf serum [CS] and antibiotics.
(§3) The test compound was dissolved in absolute ethanol and diluted to the appropriate concentrations with culture medium just before use. The cells were incubated at 37° C. in a humidified atmosphere containing 5 percent CO2 and 95 percent air. Confluent monolayers of the cells were treated with 4 μg/ml of the test compound for 24 hrs. before HSV infection. The test compound pretreated cells were infected with HSV type-1 (strain KOS) or HSV type-2 (strain YS-4) at a m.o.i. of 1. After 1 hr. of incubation at 37° C., the cells were further incubated for 24 hrs. with MEM containing with 2 percent CS, antibiotics and 4 μg/ml the test compound. Control media contained the identical concentration of ethanol. HSV infected HEL-R66 cells were harvested with a rubber policeman 24 hrs. after HSV inoculation and stored at -70° C. Titrations were performed by plaque assays on Vero cells.

Another assay concerns HSV type-2 (YS-4). The assay is described as above. To be noted: 4 μg/ml, 24 hrs. pretreatment and 24 hrs. after infection; m.o.i. 1; control 1.4 × 10^8; mean of at least three wells. It counts as cell-based, herpes simplex virus type-2 (strain YS-4). How it is done:
as §1, §2, §3

Assay [1] deals with L1210 mouse leukemia cells. To be noted: Biochem. Biophys. Res. Commun., 105, 956 (1982); cited from earlier work.
In a further assay the test system is P. aeruginosa IFO 3445. The assay is described as follows: Antimicrobial activity, serial two-fold dilution. To be noted: Pseudomonas aeruginosa, IFO3445; Gram (-); heart infusion agar. It is filed as cell-based. As to the method: (§4) Measurement of the antimicrobial activity against Gram positive and negative bacterium
(§5) One loopful of cell suspension (10^8 cells/ml) was inoculated on heart infusion agar medium containing various levels of a compound of this invention (2-chloro-4-n-butyl-5-(6-carboxyhexylidene)-2-cyclopentenone). The minimum inhibitory concentrations (MIC) was determined by a standard serial two-fold dilution method.

A further assay concerns B. subtilis ATCC 6633. The assay can be described thus: Antimicrobial activity, serial two-fold dilution. It counts as cell-based. The note with it: Bacillus subtilis, ATCC6633; Gram (+); heart infusion agar. How it is done:
as §4, §5

A further assay concerns S. aureus MS 353. The assay is described as follows: Antimicrobial activity, serial two-fold dilution. It is filed as cell-based. To be noted: Staphylococcus aureus, MS353; Gram (+); heart infusion agar. How it is done:
as §4, §5

The test system of the next assay is P. vulgaris H × 19. The assay can be described thus: Antimicrobial activity, serial two-fold dilution. It counts as cell-based. The note with it: Proteus vulgaris; Gram (-); heart infusion agar. How it is done: as §4, §5
Assay [2] has as its system Ehrlich ascites carcinoma cells. The assay is described as follows: Antitumor effect on Ehrlich ascites carcinoma, survival of mice. It is filed as in vivo, ICR mice. To be noted: over the control. As to the method:
Measurement of the antitumor effect on Ehrich ascites carcinoma
1×10^5 Ehrlich ascites carcinoma cells were intraperitoneally administered to ICR mice. After the lapse of 24 hours, 30 mg/kg/day or 20 mg/kg/day of 2-chloro-4-butyl-5-(6-carboxyhexylidene)-2-cyclopentenone (E-form) was intraperitoneally administered to the mice for 5 days. The periods of survival of these animals were examined.

In general, IC50 refers to the concentration that inhibits the measured activity by half. The term MIC denotes the smallest concentration in the dilution series that meets the test's criterion for growth inhibition. Low values mean greater potency, high ones weaker potency.

Values after ≈ are worked out from the molar mass of the structure shown.

For `CCCCC1C=C(Br)C(=O)/C1=C/CCCCCC(=O)OC` (single isomer, unassigned) [2-bromo-4-butyl-5-(6-methoxycarbonylhexylidene)-2-cyclopentenone], the IC50 with L1210 leukemia cells came out at 0.2 µg/mL (≈ 0.56 µM). Turning to `CCCCC1C=C(Cl)C(=O)/C1=C\CCCCCC(=O)OC` (single isomer, unassigned) [2-chloro-4-butyl-5-(6-methoxycarbonylhexylidene)-2-cyclopentenone], the IC50 in the assay on L1210 leukemia cells is below 0.3 µg/mL. For `COC(=O)CCCCCC=C1C(=O)C(Cl)=CC1CCC(C)CCC=C(C)C` (stereo not shown) [2-chloro-4-(3,7-dimethyl-6-octenyl)-5-(6-carbomethoxyhexylidene)-2-cyclopentenone], the Virus yield in the assay on HSV type-1 (KOS) is given as 3.1 × 10^4 pfu/ml; in the assay with HSV type-2 (YS-4), 5.4 × 10^4 pfu/ml. Regarding `CCCCC[C@H](O)/C=C/[C@H]1C(=O)C[C@H](O)[C@@H]1C/C=C\CCCC(=O)O` [PGD2], the “IC50 of PGD2 on L1210 cells” value in assay [1] is given as 2.4 micrograms/ml. Turning to `CCCCC1C=C(Cl)C(=O)/C1=C/CCCCCC(=O)OC` (single isomer, unassigned) [2-chloro-4-butyl-5-(6-methoxycarbonylhexylidene)-2-cyclopentenone], the concentration for half-maximal inhibition (IC50) with L1210 leukemia cells is 0.1 µg/mL (≈ 0.32 µM). Same read-out and setting: as for `CCCCC1C=C(Br)C(=O)/C1=C\CCCCCC(=O)OC` (single isomer, unassigned) [2-bromo-4-butyl-5-(6-methoxycarbonylhexylidene)-2-cyclopentenone], the figure is 0.1 µg/mL (≈ 0.28 µM). For `CCCCC1C=C(Cl)C(=O)/C1=C/CCCCCC(=O)O` (stereo not shown) [2-chloro-4-butyl-5-(6-carboxyhexylidene)-2-cyclopentenone], the minimum inhibitory concentration (MIC) against P. aeruginosa IFO 3445 turned out to be 100 µg/mL (≈ 335 µM); in the assay on B. subtilis ATCC 6633, 6.24 µg/mL (≈ 20.9 µM); in the assay on S. aureus MS 353, 100 µg/mL (≈ 335 µM); in the assay on P. vulgaris H × 19, 25 µg/mL (≈ 83.7 µM). Besides, the “increase of life span (ILS%)” value in assay [2] (20 mg/kg/day i.p. for 5 days) amounted to 40.2%; in [2] (30 mg/kg/day i.p. for 5 days) it was 30.7%.
